# Experiments:
# ECHCG (Barnyardgrass) [1] = assay: Postemergence herbicidal evaluation; assay type: in vivo, Echinochloa crus-galli; details: postemergence
# In short: (§1)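 Young plants, roughly two weeks from seeding, receive the active ingredient as a sprayed dispersion (acetone/water 50/50, 0.5% TWEEN 20) at 40 psi. Doses span about 0.0156 to 0.500 kg/ha. A visual score from 0 to 9 compares treated with control plants four to five weeks on.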
# [2] = system: IPOHE (Morningglory, Ivyleaf); assay: Preemergence herbicidal evaluation; assay type: in vivo, Ipomoea hederacea; details: rated 4-5 weeks after treatment
# In short: (§2)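 Rating at 4–5 wk post-spray on a 0–9 visual scale vs control. Application: aqueous acetone, ~0.0156–0.500 kg/ha, to soil surface after seeding, preemergence.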
# AMBEL (Ragweed, Common) = assay: Postemergence herbicidal evaluation; assay type: in vivo, Ambrosia artemisifolia; details: postemergence
# In short: as §1
# [3] = system: TRZAWR (Wheat, Winter, cv Riband); assay: Postemergence herbicidal evaluation; assay type: in vivo, Triticum aestivum; details: postemergence
# In short: as §1
# [4] = system: ECHORC (Watergrass (Calif.)); assay: Postemergence weed control under flooded paddy conditions; assay type: in vivo, Echinochloa oryzoides; details: postemergence weeds, 3-4 weeks after treatment
# In short: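 With weeds 3 to 5 cm tall and rice at the 1.5 to 2.5 leaf stage, containers were flooded and water held 1.5 to 3 cm above soil. Compounds in 50/50 v/v aqueous/acetone went into the flood water at about 0.0313 to 0.500 kg/ha a.i. Effects were visually rated 0–9 against controls after three to four weeks in the greenhouse.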
# [5] = system: CHEAL (Lambsquarters, Common); assay: Preemergence herbicidal evaluation; assay type: in vivo, Chenopodium album; details: rated 4-5 weeks after treatment
# In short: as §2
# [6] = system: GLXMAW (Soybean, Williams); assay: Postemergence herbicidal evaluation; assay type: in vivo, Glycine max, (L.) Merr. cv Williams; details: postemergence
# In short: as §1
# SETVI (Foxtail, Green) = assay: Postemergence herbicidal evaluation; assay type: in vivo, Setaria viridis; details: postemergence
# In short: as §1
# ZEAMX (Corn, Field) = assay: Preemergence herbicidal evaluation; assay type: in vivo, Zea mays; details: rated 4-5 weeks after treatment
# In short: as §2
# GALAP (Galium) = assay: Preemergence herbicidal evaluation; assay type: in vivo, Galium aparine; details: rated 4-5 weeks after treatment
# In short: as §2
# [7] = system: IPOHE (Morningglory, Ivyleaf); assay: Postemergence herbicidal evaluation; assay type: in vivo, Ipomoea hederacea; details: postemergence
# In short: as §1
# CASOB (Sicklepod) = assay: Preemergence herbicidal evaluation; assay type: in vivo, Cassia obtusifolia; details: rated 4-5 weeks after treatment
# In short: as §2
# ECHCG (Barnyardgrass) [8] = assay: Preemergence herbicidal evaluation; assay type: in vivo, Echinochloa crus-galli; details: rated 4-5 weeks after treatment
# In short: as §2
# ABUTH (Velvetleaf) = assay: Postemergence herbicidal evaluation; assay type: in vivo, Abutilon theophrasti; details: postemergence
# In short: as §1
smiles,measurement,setting,value
CCOC(=O)CN1C(=O)C(CC(=O)O)S/C1=N/c1cc(-n2c(=O)cc(C(F)(F)F)n(C)c2=O)c(F)cc1Cl (stereo not drawn) [Compound 16],ECHCG herbicidal rating,ECHCG (Barnyardgrass) [1]; rate 0.0157 kg/ha,3.0
same,ECHCG herbicidal rating,ECHCG (Barnyardgrass) [1]; rate 0.0313 kg/ha,8.8
same,ECHCG herbicidal rating,ECHCG (Barnyardgrass) [1]; rate 0.0625 kg/ha,9.0
same,ECHCG herbicidal rating,ECHCG (Barnyardgrass) [1]; rate 0.1250 kg/ha,9.0
same,ECHCG herbicidal rating,ECHCG (Barnyardgrass) [1]; rate 0.2500 kg/ha,9.0
same,IPOHE preemergence herbicidal rating,[2]; rate 0.0156 kg/ha,0.9
same,IPOHE preemergence herbicidal rating,[2]; rate 0.0313 kg/ha,3.5
same,IPOHE preemergence herbicidal rating,[2]; rate 0.0625 kg/ha,7.6
same,IPOHE preemergence herbicidal rating,[2]; rate 0.1250 kg/ha,8.7
same,IPOHE preemergence herbicidal rating,[2]; rate 0.2500 kg/ha,9.0
same,IPOHE preemergence herbicidal rating,[2]; rate 0.5000 kg/ha,9.0
same,AMBEL herbicidal rating,"AMBEL (Ragweed, Common); rate 0.0157 kg/ha",9.0
same,AMBEL herbicidal rating,"AMBEL (Ragweed, Common); rate 0.0313 kg/ha",8.0
same,AMBEL herbicidal rating,"AMBEL (Ragweed, Common); rate 0.0625 kg/ha",9.0
same,AMBEL herbicidal rating,"AMBEL (Ragweed, Common); rate 0.1250 kg/ha",9.0
same,AMBEL herbicidal rating,"AMBEL (Ragweed, Common); rate 0.2500 kg/ha",9.0
same,TRZAWR herbicidal rating,[3]; rate 0.0157 kg/ha,7.5
same,TRZAWR herbicidal rating,[3]; rate 0.0313 kg/ha,6.5
same,TRZAWR herbicidal rating,[3]; rate 0.0625 kg/ha,7.5
same,TRZAWR herbicidal rating,[3]; rate 0.1250 kg/ha,7.9
same,TRZAWR herbicidal rating,[3]; rate 0.2500 kg/ha,8.5
same,Herbicidal rating ECHORC,[4]; rate 0.0313 kg/ha,0.0
same,Herbicidal rating ECHORC,[4]; rate 0.0625 kg/ha,0.0
same,Herbicidal rating ECHORC,[4]; rate 0.1250 kg/ha,0.0
same,Herbicidal rating ECHORC,[4]; rate 0.2500 kg/ha,0.0
same,CHEAL preemergence herbicidal rating,[5]; rate 0.0156 kg/ha,5.7
same,CHEAL preemergence herbicidal rating,[5]; rate 0.0313 kg/ha,8.4
same,CHEAL preemergence herbicidal rating,[5]; rate 0.0625 kg/ha,8.8
same,CHEAL preemergence herbicidal rating,[5]; rate 0.1250 kg/ha,9.0
same,CHEAL preemergence herbicidal rating,[5]; rate 0.2500 kg/ha,9.0
same,CHEAL preemergence herbicidal rating,[5]; rate 0.5000 kg/ha,9.0
same,GLXMAW herbicidal rating,[6]; rate 0.0157 kg/ha,9.0
same,GLXMAW herbicidal rating,[6]; rate 0.0313 kg/ha,8.6
same,GLXMAW herbicidal rating,[6]; rate 0.0625 kg/ha,8.9
same,GLXMAW herbicidal rating,[6]; rate 0.1250 kg/ha,9.0
same,GLXMAW herbicidal rating,[6]; rate 0.2500 kg/ha,9.0
same,SETVI herbicidal rating,"SETVI (Foxtail, Green); rate 0.0157 kg/ha",9.0
same,SETVI herbicidal rating,"SETVI (Foxtail, Green); rate 0.0313 kg/ha",7.8
same,SETVI herbicidal rating,"SETVI (Foxtail, Green); rate 0.0625 kg/ha",9.0
same,SETVI herbicidal rating,"SETVI (Foxtail, Green); rate 0.1250 kg/ha",9.0
same,SETVI herbicidal rating,"SETVI (Foxtail, Green); rate 0.2500 kg/ha",9.0
same,ZEAMX preemergence herbicidal rating,"ZEAMX (Corn, Field); rate 0.0156 kg/ha",0.1
same,ZEAMX preemergence herbicidal rating,"ZEAMX (Corn, Field); rate 0.0313 kg/ha",0.6
same,ZEAMX preemergence herbicidal rating,"ZEAMX (Corn, Field); rate 0.0625 kg/ha",1.4
same,ZEAMX preemergence herbicidal rating,"ZEAMX (Corn, Field); rate 0.1250 kg/ha",1.8
same,ZEAMX preemergence herbicidal rating,"ZEAMX (Corn, Field); rate 0.2500 kg/ha",3.7
same,ZEAMX preemergence herbicidal rating,"ZEAMX (Corn, Field); rate 0.5000 kg/ha",6.0
same,GALAP preemergence herbicidal rating,GALAP (Galium); rate 0.0156 kg/ha,1.2
same,GALAP preemergence herbicidal rating,GALAP (Galium); rate 0.0313 kg/ha,2.0
same,GALAP preemergence herbicidal rating,GALAP (Galium); rate 0.0625 kg/ha,4.8
same,GALAP preemergence herbicidal rating,GALAP (Galium); rate 0.1250 kg/ha,6.4
same,GALAP preemergence herbicidal rating,GALAP (Galium); rate 0.2500 kg/ha,8.2
same,GALAP preemergence herbicidal rating,GALAP (Galium); rate 0.5000 kg/ha,9.0
same,IPOHE herbicidal rating,[7]; rate 0.0157 kg/ha,9.0
same,IPOHE herbicidal rating,[7]; rate 0.0313 kg/ha,9.0
same,IPOHE herbicidal rating,[7]; rate 0.0625 kg/ha,9.0
same,IPOHE herbicidal rating,[7]; rate 0.1250 kg/ha,9.0
same,IPOHE herbicidal rating,[7]; rate 0.2500 kg/ha,9.0
same,CASOB preemergence herbicidal rating,CASOB (Sicklepod); rate 0.0156 kg/ha,0.3
same,CASOB preemergence herbicidal rating,CASOB (Sicklepod); rate 0.0313 kg/ha,0.6
same,CASOB preemergence herbicidal rating,CASOB (Sicklepod); rate 0.0625 kg/ha,2.7
same,CASOB preemergence herbicidal rating,CASOB (Sicklepod); rate 0.1250 kg/ha,5.3
same,CASOB preemergence herbicidal rating,CASOB (Sicklepod); rate 0.2500 kg/ha,8.3
same,CASOB preemergence herbicidal rating,CASOB (Sicklepod); rate 0.5000 kg/ha,9.0
same,ECHCG preemergence herbicidal rating,ECHCG (Barnyardgrass) [8]; rate 0.0156 kg/ha,0.0
same,ECHCG preemergence herbicidal rating,ECHCG (Barnyardgrass) [8]; rate 0.0313 kg/ha,0.3
same,ECHCG preemergence herbicidal rating,ECHCG (Barnyardgrass) [8]; rate 0.0625 kg/ha,0.6
same,ECHCG preemergence herbicidal rating,ECHCG (Barnyardgrass) [8]; rate 0.1250 kg/ha,1.8
same,ECHCG preemergence herbicidal rating,ECHCG (Barnyardgrass) [8]; rate 0.2500 kg/ha,4.4
same,ECHCG preemergence herbicidal rating,ECHCG (Barnyardgrass) [8]; rate 0.5000 kg/ha,7.1
same,ABUTH herbicidal rating,ABUTH (Velvetleaf); rate 0.0157 kg/ha,9.0
same,ABUTH herbicidal rating,ABUTH (Velvetleaf); rate 0.0313 kg/ha,9.0
same,ABUTH herbicidal rating,ABUTH (Velvetleaf); rate 0.0625 kg/ha,9.0
same,ABUTH herbicidal rating,ABUTH (Velvetleaf); rate 0.1250 kg/ha,9.0
same,ABUTH herbicidal rating,ABUTH (Velvetleaf); rate 0.2500 kg/ha,9.0
